Results reported in patent publication EP0241837B1, “Stable injectable antiemetic compositions” (Bristol-Myers Squibb Company, priority 1986, dated 1987).
Like-named read-outs stand apart in the source and are kept apart here.

Test: Stability of Compound Ia (5 mg/ml) in aqueous solutions on storage at 56°C
Format: physicochemical
Settings: for % Remaining (8 weeks): 80640 min; for remaining at 168 h: 1 week; for remaining at 336 h: 2 weeks
Description: The compounds of Formula I in aqueous, isotonic (isotonicity adjusted with sodium chloride and/or dextrose) and buffered ([…], pH 5.7 and 6.5) formulations containing the equivalent of 5 mg of free base of a compound of Formula I per ml have been found unsuitable for long term shelf life. Typical isotonic and buffered formulations lost 33% and 40%, respectively, of their potency following storage for eight weeks at 56°C. […] Tables 1 and 2 give the results of stability tests on the compound of Formula Ia in water and in isotonic saline, and in citrate buffers, respectively.
Tables 3 and 4, below, provide stability data for some of the stable injectable formulations of the present invention.

[1] = 0.01m citrate buffer, pH 5.7, 5 mg/ml in 0.01M citrate buffer pH 5.7, 56°C, average of duplicate samples, read-out: % Remaining(a) (pH 5.7)
[2] = 0.01m citrate buffer, pH 6.5, 5 mg/ml in 0.01M citrate buffer pH 6.5, 56°C, average of duplicate samples, read-out: % Remaining(a) (pH 6.5)
[3] = isotonic saline, 5mg/ml in isotonic saline, 56°C, average of duplicate samples, read-out: % Remaining(a) (Isotonic Saline)
[4] = water, 5mg/ml in water, 56°C, average of duplicate samples, read-out: % Remaining(a) (Water)

SMILES: CCN(CC)CCNC(=O)c1cc(Cl)c(N)cc1OC(C)C(C)=O (stereo not shown) [Compound Ia, 4-amino-2-(2-butanon-3-yl)-oxy-5-chloro-N-[2-(diethylamino)ethyl]benzamide]
- % Remaining(a) (pH 5.7) (5 mg/ml in 0.01M citrate buffer pH 5.7, 56°C, Initial, average of duplicate samples): 100.0%
- % Remaining(a) (pH 6.5) (5 mg/ml in 0.01M citrate buffer pH 6.5, 56°C, Initial, average of duplicate samples): 100.0%
- % Remaining(a) (Isotonic Saline) (5mg/ml in isotonic saline, 56°C, Initial, average of duplicate samples): 100.0%
- % Remaining(a) (Water) (5mg/ml in water, 56°C, Initial, average of duplicate samples): 100.0%
- % Remaining (8 weeks) (5mg/ml, Ethanol/Water (v/v) 0/100, calculated dielectric constant 78.5, 56°C, 8 weeks): 89.4%
- % Remaining (8 weeks) (5mg/ml, Ethanol/Water (v/v) 25/75, calculated dielectric constant 64.9, 56°C, 8 weeks): 97.5%
- % Remaining (8 weeks) (5mg/ml, Ethanol/Water (v/v) 50/50, calculated dielectric constant 51.4, 56°C, 8 weeks): 99.1%
- remaining at 168 h [1]: 94.8%
- remaining at 336 h [1]: 87.8%
- remaining at 672 h (0.01m citrate buffer, pH 5.7, 5 mg/ml in 0.01M citrate buffer pH 5.7, 56°C, 4 weeks, average of duplicate samples, read-out: % Remaining(a) (pH 5.7)): 77.2%
- remaining at 1344 h (0.01m citrate buffer, pH 5.7, 5 mg/ml in 0.01M citrate buffer pH 5.7, 56°C, 8 weeks, average of duplicate samples, read-out: % Remaining(a) (pH 5.7)): 58.9%
- remaining at 168 h [2]: 93.6%
- remaining at 336 h [2]: 87.9%
- remaining at 672 h (0.01m citrate buffer, pH 6.5, 5 mg/ml in 0.01M citrate buffer pH 6.5, 56°C, 4 weeks, average of duplicate samples, read-out: % Remaining(a) (pH 6.5)): 77.5%
- remaining at 1344 h (0.01m citrate buffer, pH 6.5, 5 mg/ml in 0.01M citrate buffer pH 6.5, 56°C, 8 weeks, average of duplicate samples, read-out: % Remaining(a) (pH 6.5)): 60.3%
- remaining at 672 h (5% (w/v) glycerol, 5mg/ml, solvent 5% (w/v) Glycerol, calculated dielectric constant 76.3, 56°C, 4 weeks, read-out: % Remaining (4 weeks)): 95.1%
- remaining at 1344 h (5% (w/v) glycerol, 5mg/ml, solvent 5% (w/v) Glycerol, calculated dielectric constant 76.3, 56°C, 8 weeks, read-out: %Remaining (8 weeks)): 90.9%
- remaining at 672 h (15% (w/v) glycerol, 5mg/ml, solvent 15% (w/v) Glycerol, calculated dielectric constant 71.8, 56°C, 4 weeks, read-out: % Remaining (4 weeks)): 96.5%
- remaining at 1344 h (15% (w/v) glycerol, 5mg/ml, solvent 15% (w/v) Glycerol, calculated dielectric constant 71.8, 56°C, 8 weeks, read-out: %Remaining (8 weeks)): 94.2%
- remaining at 672 h (25% (w/v) glycerol, 5mg/ml, solvent 25% (w/v) Glycerol, calculated dielectric constant 71.4, 56°C, 4 weeks, read-out: % Remaining (4 weeks)): 96.8%
- remaining at 1344 h (25% (w/v) glycerol, 5mg/ml, solvent 25% (w/v) Glycerol, calculated dielectric constant 71.4, 56°C, 8 weeks, read-out: %Remaining (8 weeks)): 95.3%
- remaining at 672 h (25% (w/v) propylene glycol, 5mg/ml, solvent 25% (w/v) Propylene Glycol, calculated dielectric constant 67.3, 56°C, 4 weeks, read-out: % Remaining (4 weeks)): 97.7%
- remaining at 1344 h (25% (w/v) propylene glycol, 5mg/ml, solvent 25% (w/v) Propylene Glycol, calculated dielectric constant 67.3, 56°C, 8 weeks, read-out: %Remaining (8 weeks)): 96.8%
- remaining at 672 h (ethanol/water 0/100, 5mg/ml, Ethanol/Water (v/v) 0/100, calculated dielectric constant 78.5, 56°C, 4 weeks, read-out: % Remaining (4 weeks)): 94.9%
- remaining at 672 h (ethanol/water 25/75, 5mg/ml, Ethanol/Water (v/v) 25/75, calculated dielectric constant 64.9, 56°C, 4 weeks, read-out: % Remaining (4 weeks)): 98.7%
- remaining at 672 h (ethanol/water 50/50, 5mg/ml, Ethanol/Water (v/v) 50/50, calculated dielectric constant 51.4, 56°C, 4 weeks, read-out: % Remaining (4 weeks)): 99.5%
- remaining at 672 h (ethanol/water 75/25, 5mg/ml, Ethanol/Water (v/v) 75/25, calculated dielectric constant 37.8, 56°C, 4 weeks, read-out: % Remaining (4 weeks)): 99.6%
- remaining at 168 h [3]: 96%
- remaining at 336 h [3]: 91.6%
- remaining at 672 h (isotonic saline, 5mg/ml in isotonic saline, 56°C, 4 weeks, average of duplicate samples, read-out: % Remaining(a) (Isotonic Saline)): 83.5%
- remaining at 1344 h (isotonic saline, 5mg/ml in isotonic saline, 56°C, 8 weeks, average of duplicate samples, read-out: % Remaining(a) (Isotonic Saline)): 66.9%
- remaining at 168 h [4]: 97.4%
- remaining at 336 h [4]: 95.5%
- remaining at 672 h (water, 5mg/ml in water, 56°C, 4 weeks, average of duplicate samples, read-out: % Remaining(a) (Water)): 90.8%
- remaining at 1344 h (water, 5mg/ml in water, 56°C, 8 weeks, average of duplicate samples, read-out: % Remaining(a) (Water)): 80.5%
- remaining at 672 h (water, 5mg/ml, solvent Water, calculated dielectric constant 78.5, 56°C, 4 weeks (Table 4), read-out: % Remaining (4 weeks)): 94.9%
- remaining at 1344 h (water, 5mg/ml, solvent Water, calculated dielectric constant 78.5, 56°C, 8 weeks (Table 4), read-out: %Remaining (8 weeks)): 88.1%
